Earlier results in paper PMC4303307 (Biochemistry, 2014).
Where no end group is shown, it is not given here.

System: γ-crystallin
Conditions: cited from earlier work

MAC peptide with an acetylated Lys 70: the MAC peptide with an acetylated Lys 70 used by Nahomi et al. (K(Ac)FVIFLDVKHFSPEDLTVK; UniProt P02489 70-88, looked up, fragment)
chaperone activity of acetylated Lys vs Asp at the N-terminal end: enhanced chaperone activity | increase of chaperone activity over nonacetylated peptide (in vitro, γ-crystallin substrate): ~15%
